Laboratory results: US20180179198A1, “TRICYCLIC MODULATORS OF TNF SIGNALING” (AbbVie Inc., priority 2015, published 2018)

molecular target: TNFα trimer (Homo sapiens, UniProt P01375); assay: TNFα FP Competitive Binding Assay; settings: TNFα FP competitive binding assay; class symbols A/B/C; read-out: TNF IC50
How it was run: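 Compounds, 12-point 1:3 dilutions topping at 100 μM (2.0% DMSO) or 338 μM (3.4% DMSO) final, compete with 1 nM fluorescent probe for 20 nM TNFα trimer in HEPES/NaCl/EDTA/Triton buffer. After 18-24 h incubation at 37 °C plus 1 h rt equilibration, background-subtracted polarization is read and fitted with variable slope.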

Sequence of TNFα trimer (P01375 77-233 limits assumed): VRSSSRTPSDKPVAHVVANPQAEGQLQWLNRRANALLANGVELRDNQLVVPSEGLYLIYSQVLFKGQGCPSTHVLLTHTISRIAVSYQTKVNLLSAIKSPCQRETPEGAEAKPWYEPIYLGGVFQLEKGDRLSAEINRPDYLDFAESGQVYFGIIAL

Row | Structure (SMILES) | IC50 [nM]
1 | COc1ncc(-c2ccc3nc4n(c3n2)C2(COC4)COc3ccccc32)cn1 (centres unmarked) [BG.2] | 1000 to 10000
2 | C[C@H]1CN(c2ncc(-c3ccc4nc5n(c4n3)C3(COC5)COc4ccccc43)cn2)CCN1C(=O)COC(C)(C)C (stereo partly drawn) [BG.3, 2-(tert-Butoxy)-1-((2S)-4-(5-(6′,8′-dihydro-2H-spiro[benzofuran-3,9′-pyrido[3′,2′:4,5]imidazo[2,1-c][1,4]oxazin]-2′-yl)pyrimidin-2-yl)-2-methylpiperazin-1-yl)ethanone] | 1000 to 10000
3 | C[C@H]1CN(C(=O)COC(C)(C)C)CCN1c1ncc(-c2ccc3nc4n(c3n2)C2(COC4)COc3ccccc32)cn1 (stereo partly drawn) [BG.4, 1-((3S)-4-(5-(2H,6′H,8′H-Spiro[benzofuran-3,9′-pyrido[3′,2′:4,5]imidazo[2,1-c][1,4]oxazin]-2′-yl)pyrimidin-2-yl)-3-methylpiperazin-1-yl)-2-(tert-butoxy)ethan-1-one] | 1000 to 10000
4 | C[C@@H]1CN(C(=O)COC(C)(C)C)CCN1c1ncc(-c2ccc3nc4n(c3n2)C2(COC4)COc3ccccc32)cn1 (stereo partly drawn) [BG.5, 1-((3R)-4-(5-(2H,6′H,8′H-Spiro[benzofuran-3,9′-pyrido[3′,2′:4,5]imidazo[2,1-c][1,4]oxazin]-2′-yl)pyrimidin-2-yl)-3-methylpiperazin-1-yl)-2-(tert-butoxy)ethan-1-one] | 1000 to 10000
5 | C[C@@H]1CN(c2ncc(-c3ccc4nc5n(c4n3)C3(COC5)COc4ccccc43)cn2)CCN1C(=O)COC(C)(C)C (stereo partly drawn) [BG.6, 1-((2R)-4-(5-(2H,6′H,8′H-Spiro[benzofuran-3,9′-pyrido[3′,2′:4,5]imidazo[2,1-c][1,4]oxazin]-2′-yl)pyrimidin-2-yl)-2-methylpiperazin-1-yl)-2-(tert-butoxy)ethan-1-one] | < 1000
6 | C[C@H]1CN(C(=O)CO)CCN1c1ncc(-c2ccc3nc4n(c3n2)C2(COC4)COc3ccccc32)cn1 (some centres unmarked) [BH.1] | < 1000
7 | C[C@@H]1CN(C(=O)CO)CCN1c1ncc(-c2ccc3nc4n(c3n2)C2(COC4)COc3ccccc32)cn1 (some centres unmarked) [BH.2] | < 1000
8 | C[C@@H]1CN(c2ncc(-c3ccc4nc5n(c4n3)C3(COC5)COc4ccccc43)cn2)CCN1C(=O)CO (some centres unmarked) [BH.3] | < 1000
9 | COC(C)(C)CC(=O)N1CC=C(c2ccc3nc4n(c3n2)C2(COC4)COc3ccccc32)CC1 (centres unmarked) [BI.1] | 1000 to 10000
10 | OC1CCN(c2ncc(-c3ccc4nc5n(c4n3)[C@@]3(COC5)COc4ccccc43)cn2)CC1 [BJ.1] | < 1000

same assay, conditions: Table BK; read-out: TNF IC50

Row | Structure (SMILES) | IC50 [nM]
11 | O[C@H]1CC[C@@H](COc2cc(-c3ccc4nc5n(c4n3)[C@@H](c3ccccc3)CC5)ccn2)CC1 [BK.1] | < 1000
12 | O[C@H]1CC[C@H](COc2cc(-c3ccc4nc5n(c4n3)[C@@H](c3ccccc3)CC5)ccn2)CC1 [BK.2] | 1000 to 10000
13 | OC[C@H]1CC[C@H](COc2cc(-c3ccc4nc5n(c4n3)[C@@H](c3ccccc3)CC5)ccn2)CC1 [BK.3] | 1000 to 10000

same assay, conditions: Table BL; read-out: TNF IC50

Row | Structure (SMILES) | IC50 [nM]
14 | C[C@@H]1CN(c2ncc(-c3ccc4nc5n(c4n3)[C@@]3(COC5)COc4ccccc43)cn2)CCN1C(=O)CO [BL.1] | < 1000

same assay, conditions: Table BM; read-out: TNF IC50

Row | Structure (SMILES) | IC50 [nM]
15 | C[C@@H]1CN(c2ncc(-c3ccc4nc5n(c4n3)[C@]3(COC5)COc4ccccc43)cn2)CCN1C(=O)CO [BM.1] | 1000 to 10000
16 | C[C@H]1CN(c2ncc(-c3ccc4nc5n(c4n3)[C@]3(COC5)COc4ccccc43)cn2)CCN1C(=O)CO [BM.2] | 1000 to 10000

same assay, conditions: Table BN; read-out: TNF IC50

Row | Structure (SMILES) | IC50 [nM]
17 | COC(=O)CC1CC=C(c2ccc3nc4n(c3n2)[C@@H](c2ccccc2)CC4)CC1 (some centres unmarked) [BN.1] | 1000 to 10000

same assay, conditions: Table BO; read-out: TNF IC50

Row | Structure (SMILES) | IC50 [nM]
18 | OC1CCN(c2ncc(-c3ccc4nc5n(c4n3)C3(COCc4ccccc43)COC5)cn2)CC1 (centres unmarked) [BO.1] | 1000 to 10000
19 | O=C1NC[C@@H]2CN(c3ncc(-c4ccc5nc6n(c5n4)C4(COCc5ccccc54)COC6)cn3)CCN12 (some centres unmarked) [BO.2] | < 1000

same assay, conditions: Table BP; read-out: TNF IC50

Row | Structure (SMILES) | IC50 [nM]
20 | c1ccc2c(c1)COCC21COCc2nc3ccc(-c4cnc(N5CCOCC5)nc4)nc3n21 (centres unmarked) [BP.1] | 1000 to 10000

same assay, conditions: Table BQ; read-out: TNF IC50

Row | Structure (SMILES) | IC50 [nM]
21 | CC(C)(N)c1ncc(-c2ccc3nc4n(c3n2)[C@@H](c2ccccc2)CC4)cn1 [BQ.1] | 1000 to 10000

same assay, conditions: fluorescence polarization competition; 20 nM TNFα trimer, 1 nM OregonGreen488 probe; read-out: TNF IC50 (TNFα FP binding assay IC50)

Row | Structure (SMILES) | IC50 [nM]
22 | c1ccc([C@@H]2CCc3nc4ccc(-c5cnc(N6CCOCC6)nc5)cc4n32)cc1 [C.1] | 10000 to 100000
23 | c1ccc([C@H]2CCc3nc4ccc(-c5cnc(N6CCOCC6)nc5)cc4n32)cc1 [D.3] | < 1000
24 | c1ccc(C2CCOc3nc4ccc(-c5cnc(N6CCOCC6)nc5)cn4c32)cc1 (centres unmarked) [D.4] | 1000 to 10000
25 | COc1ccccc1C1CCOc2nc3ccc(-c4cnc(N5CCOCC5)nc4)cn3c21 (centres unmarked) [D.5] | < 1000
26 | CC(C)(O)c1ncc(-c2ccc3nc4n(c3c2)C(c2ccccc2)CCC4)cn1 (centres unmarked) [E.1, 2-(5-(1-Phenyl-1,2,3,4-tetrahydrobenzo[4,5]imidazo[1,2-a]pyridin-8-yl)pyrimidin-2-yl)propan-2-ol] | < 1000
27 | CC(C)(O)c1ncc(-c2ccc3nc4n(c3c2)C(c2ccccc2O)CCC4)cn1 (centres unmarked) [E.2] | 10000 to 100000
28 | COc1ccccc1C1CCc2nc3ccc(-c4cnc(C(C)(C)O)nc4)cc3n21 (centres unmarked) [E.3] | < 1000
29 | CC(C)(O)c1ncc(-c2ccc3nc4n(c3n2)C2(COC4)COc3ccccc32)cn1 (centres unmarked) [E.4, 2-(5-(6′,8′-Dihydro-2H-spiro[benzofuran-3,9′-pyrido[3′,2′:4,5]imidazo[2,1-c][1,4]oxazin]-2′-yl)pyrimidin-2-yl)propan-2-ol] | < 1000
30 | CC(C)(O)c1ncc(-c2ccc3nc4n(c3n2)C2(CCOc3ccccc32)COC4)cn1 (centres unmarked) [E.5, 2-(5-(6′,8′-Dihydrospiro[chroman-4,9′-pyrido[3′,2′:4,5]imidazo[2,1-c][1,4]oxazin]-2′-yl)pyrimidin-2-yl)propan-2-ol] | 1000 to 10000
31 | CC(C)(O)c1ncc(-c2ccc3nc4n(c3c2)C(c2ccccc2)CC4)cn1 (centres unmarked) [Example 1, 2-(5-(1-Phenyl-2,3-dihydro-1H-benzo[d]pyrrolo[1,2-a]imidazol-7-yl)pyrimidin-2-yl)propan-2-ol] | < 1000
32 | CC(C)(O)c1ncc(-c2ccc3nc4n(c3c2)[C@@H](c2ccccc2)CC4)cn1 [Example 2, (R)-2-(5-(1-Phenyl-2,3-dihydro-1H-benzo[d]pyrrolo[1,2-a]imidazol-7-yl)pyrimidin-2-yl)propan-2-ol] | < 1000
33 | O=C1NCC2CN(c3ncc(-c4ccc5nc6n(c5c4)[C@@H](c4ccccc4)CC6)cn3)CCN12 (stereo partly drawn) [Example 3, 7-(5-((R)-1-Phenyl-2,3-dihydro-1H-benzo[d]pyrrolo[1,2-a]imidazol-7-yl)pyrimidin-2-yl)hexahydroimidazo[1,5-a]pyrazin-3(2H)-one] | < 1000
34 | OC1CCN(c2ncc(-c3ccc4nc5n(c4c3)[C@@H](c3ccccc3)COC5)cn2)CC1 [Example 4, (S)-1-(5-(4-Phenyl-3,4-dihydro-1H-benzo[4,5]imidazo[2,1-c][1,4]oxazin-7-yl)pyrimidin-2-yl)piperidin-4-ol] | < 1000
35 | COc1ccccc1C1(O)CCCc2nc3ccc(-c4cnc(N5CCOCC5)nc4)cn3c21 (centres unmarked) [Example 5, 9-(2-Methoxyphenyl)-2-(2-morpholinopyrimidin-5-yl)-6,7,8,9-tetrahydrobenzo[4,5]imidazo[1,2-a]pyridin-9-ol] | 1000 to 10000
36 | c1ccc(C2CCc3nc4ccc(-c5cnc(N6CCOCC6)nc5)nc4n32)cc1 (centres unmarked) [Example 6, 4-(5-(8-Phenyl-7,8-dihydro-6H-pyrrolo[2′,1′:2,3]imidazo[4,5-b]pyridin-2-yl)pyrimidin-2-yl)morpholine] | < 1000
37 | CCOC(=O)CNc1ncc(-c2ccc3nc4c(n3c2)C(c2ccccc2OC)CCC4)cn1 (centres unmarked) [Example 7, Ethyl 2-[[5-[9-(2-methoxyphenyl)-6,7,8,9-tetrahydropyrido[1,2-a]benzimidazol-2-yl]pyrimidin-2-yl]amino]acetate] | < 1000
38 | COc1ccccc1C1CCCc2nc3ccc(-c4cnc(NCC(=O)O)nc4)cn3c21 (centres unmarked) [Example 8, 2-((5-(9-(2-methoxyphenyl)-6,7,8,9-tetrahydrobenzo[4,5]imidazo[1,2-a]pyridin-2-yl)pyrimidin-2-yl)amino)acetic acid] | 1000 to 10000
39 | O=C1NCC2CN(c3ncc(-c4ccc5nc6n(c5c4)[C@@H](c4ccccc4)COC6)cn3)CCN12 (stereo partly drawn) [Example 9, 7-(5-((S)-4-Phenyl-3,4-dihydro-1H-benzo[4,5]imidazo[2,1-c][1,4]oxazin-7-yl)pyrimidin-2-yl)hexahydroimidazo[1,5-a]pyrazin-3(2H)-one] | < 1000
40 | COc1ccccc1C1CCc2nc3ccc(-c4cnc(C(C)(C)O)nc4)cn3c21 (centres unmarked) [Example 10, 2-(5-(1-(2-Methoxyphenyl)-2,3-dihydro-1H-cyclopenenta[4,5]imidazo[1,2-a]pyridin-7-yl)pyrimidin-2-yl)propan-2-ol] | < 1000
41 | COc1ccccc1[C@@H]1CCc2nc3ccc(-c4cnc(C(C)(C)O)nc4)cn3c21 [Example 11, (S)-2-(5-(1-(2-Methoxyphenyl)-2,3-dihydro-1H-cyclopenta[4,5]imidazo[1,2-a]pyridin-7-yl)pyrimidin-2-yl)propan-2-ol] | 10000 to 100000
42 | COc1ccccc1[C@H]1CCc2nc3ccc(-c4cnc(C(C)(C)O)nc4)cn3c21 [Example 12, (R)-2-(5-(1-(2-methoxyphenyl)-2,3-dihydro-1H-cyclopenta[4,5]imidazo[1,2-a]pyridin-7-yl)pyrimidin-2-yl)propan-2-ol] | < 1000
43 | CC(C)(O)c1ncc(-c2ccc3nc4n(c3c2)[C@@H](c2ccccc2OC(F)F)COC4)cn1 [Example 13, (S)-2-(5-(4-(2-(Difluoromethoxy)phenyl)-3,4-dihydro-1H-benzo[4,5]imidazo[2,1-c][1,4]oxazin-7-yl)pyrimidin-2-yl)propan-2-ol] | < 1000
44 | COc1ccccc1C1=CCCc2nc3ccc(-c4cnc(N5CCOCC5)nc4)cn3c21 [Example 14, 4-(5-(9-(2-Methoxyphenyl)-6,7-dihydrobenzo[4,5]imidazo[1,2-a]pyridin-2-yl)pyrimidin-2-yl)morpholine] | 10000 to 100000
